The text below walks through data of ChEMBL document CHEMBL1201862, “PubChem BioAssay data set” (2004).

Active and inactive are the calls of the source.

Assay [1] can be described thus: human group III sPLA2 inhibitors, dose response, biochemical, QFRET, IC50 (AID 743457).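 Note: green fluorescence rise as the enzyme cleaves BODIPY PC-A2 in liposomes; potency for inhibition of the enzyme.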
Assay [2] deals with ADP-ribosylation factor GTPase-activating protein 1 (Rattus norvegicus, UniProt Q62848). The experiment in a line: Fluorescence polarization-based biochemical high throughput dose response screening assay to identify inhibitors of ADP-ribosylation factor GTPase activating protein 1 (ARFGAP1). The format is functional.
Assay [3] deals with BHK-21. The experiment in a line: BHK-21 cell toxicity, dose response, cytotoxicity control, plate reader, cherry-pick samples (AID 687030). The format is functional, cell-based. The settings on record: Mesocricetus auratus.
Assay [4] deals with A549. The experiment in a line: A549 cell toxicity, dose response, cytotoxicity control, plate reader, cherry-pick samples (AID 687028). Type of assay: functional, cell-based. The settings on record: Homo sapiens.
Assay [5] is described as follows: Counterscreen for activators of the function of SWI/SNF related, matrix associated, actin dependent regulator of chromatin, subfamily a, member 2 (SMARCA2, BRM): Luminescence-based cell-based high throughput dose response assay to identify non-selective compounds using the VP16 reporter assay. Type of assay: functional.
Assay [6] deals with SWI/SNF-related matrix-associated actin-dependent regulator of chromatin subfamily A member 2 (Homo sapiens, UniProt P51531). Description: Luminescence-based cell-based high throughput dose response assay to identify activators of the function of SWI/SNF related, matrix associated, actin dependent regulator of chromatin, subfamily a, member 2 (SMARCA2, BRM). The format is functional.
Chain of SWI/SNF-related matrix-associated actin-dependent regulator of chromatin subfamily A member 2 (P51531 whole entry): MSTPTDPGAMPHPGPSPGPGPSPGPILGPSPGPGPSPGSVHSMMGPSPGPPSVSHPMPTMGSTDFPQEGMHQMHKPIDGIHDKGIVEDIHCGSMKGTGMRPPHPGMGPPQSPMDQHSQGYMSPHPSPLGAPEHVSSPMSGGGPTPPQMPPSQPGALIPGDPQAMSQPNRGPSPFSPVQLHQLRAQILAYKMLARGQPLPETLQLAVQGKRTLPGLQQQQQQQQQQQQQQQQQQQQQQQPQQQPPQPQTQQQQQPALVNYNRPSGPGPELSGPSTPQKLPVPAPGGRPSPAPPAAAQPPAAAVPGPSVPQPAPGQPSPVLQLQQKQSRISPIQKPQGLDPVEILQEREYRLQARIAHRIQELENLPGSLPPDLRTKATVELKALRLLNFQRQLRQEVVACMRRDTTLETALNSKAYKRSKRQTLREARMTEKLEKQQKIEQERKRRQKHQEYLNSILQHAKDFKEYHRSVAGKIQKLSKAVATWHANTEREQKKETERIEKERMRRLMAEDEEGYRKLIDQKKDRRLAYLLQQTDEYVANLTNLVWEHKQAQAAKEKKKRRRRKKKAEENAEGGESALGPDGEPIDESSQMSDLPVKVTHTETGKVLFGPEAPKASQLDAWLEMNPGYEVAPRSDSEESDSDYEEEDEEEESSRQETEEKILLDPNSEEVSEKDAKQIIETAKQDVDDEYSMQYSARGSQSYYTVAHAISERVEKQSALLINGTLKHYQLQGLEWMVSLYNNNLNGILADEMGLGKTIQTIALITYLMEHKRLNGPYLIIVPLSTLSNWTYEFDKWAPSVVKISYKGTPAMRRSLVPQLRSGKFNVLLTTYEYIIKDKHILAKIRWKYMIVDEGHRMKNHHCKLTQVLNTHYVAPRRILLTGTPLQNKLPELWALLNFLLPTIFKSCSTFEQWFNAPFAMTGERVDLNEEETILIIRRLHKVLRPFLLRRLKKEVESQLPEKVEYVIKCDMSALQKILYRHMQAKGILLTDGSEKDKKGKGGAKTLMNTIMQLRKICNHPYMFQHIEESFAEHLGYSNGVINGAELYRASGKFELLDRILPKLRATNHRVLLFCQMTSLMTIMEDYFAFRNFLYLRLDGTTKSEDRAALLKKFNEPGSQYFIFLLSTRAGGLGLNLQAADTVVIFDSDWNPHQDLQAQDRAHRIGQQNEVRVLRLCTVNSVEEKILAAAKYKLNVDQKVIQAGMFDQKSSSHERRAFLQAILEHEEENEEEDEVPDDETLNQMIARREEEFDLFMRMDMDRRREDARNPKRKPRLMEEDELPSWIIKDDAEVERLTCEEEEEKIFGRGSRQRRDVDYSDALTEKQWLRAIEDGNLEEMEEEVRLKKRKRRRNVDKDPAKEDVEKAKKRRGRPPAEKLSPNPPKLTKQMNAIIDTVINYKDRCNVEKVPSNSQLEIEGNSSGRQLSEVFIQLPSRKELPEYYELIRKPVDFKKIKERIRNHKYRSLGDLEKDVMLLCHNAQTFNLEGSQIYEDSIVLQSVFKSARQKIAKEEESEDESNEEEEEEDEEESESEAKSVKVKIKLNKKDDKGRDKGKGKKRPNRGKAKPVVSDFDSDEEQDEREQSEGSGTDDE

The target of assay [7] is Steroidogenic factor 1 (Homo sapiens, UniProt Q13285). The experiment in a line: Counterscreen for inverse agonists of the liver receptor homolog-1 (LRH-1; NR5A2): Luminescence-based cell-based high throughput dose response assay to identify inverse agonists of the Steroidogenic Factor 1 Nuclear Receptor (SF1; NR5A1). The format is functional.
The target of assay [8] is Nuclear receptor subfamily 5 group A member 2 (Homo sapiens, UniProt O00482). The format is functional, cell-based.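 Note: HEK293T cells transfected with LRH-1 and a StAR promoter luciferase reporter; potency for inhibitors that lower LRH-1 driven reporter light.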
Chain of Nuclear receptor subfamily 5 group A member 2 (O00482 whole entry): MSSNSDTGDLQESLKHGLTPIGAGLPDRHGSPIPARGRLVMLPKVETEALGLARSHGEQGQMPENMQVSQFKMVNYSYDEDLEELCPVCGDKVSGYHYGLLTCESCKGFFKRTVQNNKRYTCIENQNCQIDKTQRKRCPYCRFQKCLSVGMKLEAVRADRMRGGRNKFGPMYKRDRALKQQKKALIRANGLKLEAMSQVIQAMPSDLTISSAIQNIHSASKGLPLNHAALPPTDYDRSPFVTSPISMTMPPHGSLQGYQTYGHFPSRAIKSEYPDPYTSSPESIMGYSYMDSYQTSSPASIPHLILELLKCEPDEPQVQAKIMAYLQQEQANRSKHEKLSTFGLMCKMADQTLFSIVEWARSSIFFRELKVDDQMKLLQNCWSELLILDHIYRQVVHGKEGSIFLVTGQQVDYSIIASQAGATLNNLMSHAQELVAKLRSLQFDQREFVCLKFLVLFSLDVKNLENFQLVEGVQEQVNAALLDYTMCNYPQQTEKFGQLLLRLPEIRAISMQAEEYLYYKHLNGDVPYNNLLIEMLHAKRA
The nature of assay [9]: StAR promoter reporter inhibition counter-screen, dose response, counter-screen for LRH-1 inverse agonist project, cell-based, luminescence, luciferase reporter (AID 651969). Type of assay: functional.
Assay [10] has as its target Photoreceptor-specific nuclear receptor (Homo sapiens, UniProt Q9Y5X4). The format is functional, cell-based.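 Note: CHO-S cells with Gal4-NCOR and VP16-NR2E3 two-hybrid luciferase reporter.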
Assay [11] can be described thus: cytotoxicity in HEK-293T cells, dose response, cytotoxicity control for TCR NF-kB inhibitor project, luminescence, T-cell screen hits (AID 489026).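 Note: cells exposed to compound about 14 hours before the viability readout.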 Type of assay: functional, cell-based.
Assay [12] deals with BJ. The experiment in a line: cytotoxicity toward Ras-transformed BJeLR fibroblasts, dose response, cell-based, alamar blue fluorescence, cherrypicked samples (AID 2631).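 Note: confirmatory dose-response assay in RAS-dependent BJ fibroblasts engineered with TERT, LT and ST, with cytotoxicity read by fluorescence.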 Type of assay: functional. Conditions: Homo sapiens.
In assay [13] the test system is BJ. The experiment in a line: cytotoxicity toward BJ-TERT fibroblasts, dose response, cell-based, RAS-independent, luminescence (AID 1933). The format is functional. Conditions: Homo sapiens.
For assay [14], the system named is BJ. Description: cells. Type of assay: functional, cell-based. Conditions: Homo sapiens.
Assay [15] concerns BJ. The experiment in a line: cytotoxicity toward BJ-TERT-LT-ST fibroblasts, dose response, cell-based, RAS-independent, luminescence (AID 1935).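 Note: BJ fibroblasts immortalized with TERT plus LT and ST oncogenes.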 The format is functional. Conditions: Homo sapiens.
The nature of assay [16]: cytotoxicity toward DRD oncogenic fibroblasts, dose response, cell-based, non-viral oncogenic, luminescence (AID 1934). The settings on record: Homo sapiens. Type of assay: functional.
Assay [17] has as its target T1, Matrix metalloproteinase-14 (Homo sapiens, UniProt P50281). The experiment in a line: SAR confirmation of uHTS hits for a small molecule inhibitors of MT1-MMP activation in a fluorescence assay. Type of assay: functional.
Assay [18] deals with T1, Matrix metalloproteinase-14. Description: Dose Response confirmation of uHTS hits for a small molecule inhibitors of MT1-MMP activation in a fluorescence assay set 1. Type of assay: functional.
In assay [19] the target is T2, ATP-dependent translocase ABCB1 (Homo sapiens, UniProt P08183). The experiment in a line: ABCB1 efflux inhibitor potency, dose response, Jurkat-DNR cells, JC-1, flow cytometry, set 2 (AID 504569).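 Note: potency of pump inhibitors that raise cellular JC-1 green fluorescence up to the nicardipine level.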 Conditions: read-out: EC50_MICROM_. Type of assay: functional.
T2 sequence (P08183 whole entry): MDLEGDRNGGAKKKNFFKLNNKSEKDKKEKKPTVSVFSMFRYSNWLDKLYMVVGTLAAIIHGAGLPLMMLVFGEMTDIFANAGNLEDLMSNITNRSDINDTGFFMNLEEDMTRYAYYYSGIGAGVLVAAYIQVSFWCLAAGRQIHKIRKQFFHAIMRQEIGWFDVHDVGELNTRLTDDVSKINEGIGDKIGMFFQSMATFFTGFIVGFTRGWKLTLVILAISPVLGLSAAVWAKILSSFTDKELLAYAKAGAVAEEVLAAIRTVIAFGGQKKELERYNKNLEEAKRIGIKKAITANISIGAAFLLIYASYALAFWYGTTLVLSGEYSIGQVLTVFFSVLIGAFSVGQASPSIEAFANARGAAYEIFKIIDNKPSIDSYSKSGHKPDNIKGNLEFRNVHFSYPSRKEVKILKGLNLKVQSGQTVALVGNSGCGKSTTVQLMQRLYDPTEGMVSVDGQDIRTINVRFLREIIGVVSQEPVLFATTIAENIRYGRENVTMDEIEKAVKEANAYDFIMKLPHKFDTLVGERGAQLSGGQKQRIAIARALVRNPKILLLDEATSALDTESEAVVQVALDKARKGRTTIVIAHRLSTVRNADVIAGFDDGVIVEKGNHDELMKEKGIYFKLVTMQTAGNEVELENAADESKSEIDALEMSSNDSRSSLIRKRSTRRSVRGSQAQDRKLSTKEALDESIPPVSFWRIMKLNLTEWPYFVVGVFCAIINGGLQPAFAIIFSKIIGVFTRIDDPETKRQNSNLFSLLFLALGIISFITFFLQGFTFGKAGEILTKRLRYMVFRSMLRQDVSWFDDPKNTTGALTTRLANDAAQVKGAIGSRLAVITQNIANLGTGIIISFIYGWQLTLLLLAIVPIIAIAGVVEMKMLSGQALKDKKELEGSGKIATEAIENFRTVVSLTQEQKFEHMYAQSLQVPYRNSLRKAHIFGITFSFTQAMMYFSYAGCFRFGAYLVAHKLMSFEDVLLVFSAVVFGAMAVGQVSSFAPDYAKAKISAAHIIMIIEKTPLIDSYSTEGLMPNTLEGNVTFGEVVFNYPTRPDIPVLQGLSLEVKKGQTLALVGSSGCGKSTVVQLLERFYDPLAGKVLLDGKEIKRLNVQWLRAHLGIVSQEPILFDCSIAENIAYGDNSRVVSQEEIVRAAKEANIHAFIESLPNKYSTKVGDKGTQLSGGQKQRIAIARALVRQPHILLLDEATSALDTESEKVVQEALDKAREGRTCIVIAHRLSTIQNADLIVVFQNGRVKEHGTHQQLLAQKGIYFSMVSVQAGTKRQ
Assay [20] concerns the target T2, ATP-dependent translocase ABCB1. Description: ABCG2 efflux pump inhibitor potency, dose response, Ig-MXP3 cells, JC-1, flow cytometry, set 2 (AID 504566).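 Note: flow cytometry median green fluorescence of retained JC-1 dye; potency of efflux pump inhibition measured as rising substrate retention.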 The format is functional. Conditions: read-out: EC50_MICROM_.
A short description of assay [21]: miR-122 activators in hepatoma reporter cells, dose response, cell-based, Huh7 psiCHECK-miR122, Renilla luciferase, cherry-picked (AID 651956).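 Note: huh7 hepatoma cells stably carrying a psiCHECK-2 miR-122 sensor plasmid; renilla luciferase signal reporting endogenous miR-122 activity after 48 h compound exposure.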 The format is functional.
Assay [22] can be described thus: cells. The format is functional, cell-based.
A short description of assay [23]: cells. Type of assay: functional, cell-based. The source holds these as a separate data set.
A short description of assay [24]: A2780 ovarian cancer cell cytotoxicity, dose response, cytotoxicity control, plate reader, dry powder samples (AID 743046). Type of assay: functional, cell-based.
The nature of assay [25]: NIH:OVCAR-3 ovarian cancer cell cytotoxicity, dose response, PAX8 inhibitor project, plate reader, dry powder samples (AID 743044). Type of assay: functional, cell-based.
Assay [26] in a line: IGROV1 ovarian cancer cell cytotoxicity, dose response, PAX8 inhibitor project, plate reader, dry powder samples (AID 743043). Type of assay: functional, cell-based. Conditions: IGROV-1.
In assay [27] the target is Paired box protein Pax-8 (Homo sapiens, UniProt Q06710). The experiment in a line: inhibitors of PAX8-driven TPO luciferase reporter, dose response, RMG-I cells, cherry-pick (AID 687027).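 Note: luciferase reporter driven by Pax8 target thyroperoxidase promoter measured by SteadyGlo luminescence.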 Type of assay: functional, cell-based.
Assay [28] can be described thus: cytotoxicity in OVCAR8 ovarian cancer cells, dose response, PAX8 project, cell-based, plate reader, dry powder samples (AID 743197). Type of assay: functional. The settings on record: OVCAR-8.
Assay [29] in a line: HEK293 cell viability, dose response, counter-screen for EBV LMP1 inhibitor project, dry powder, set 2 (AID 624374). The format is functional.
Assay [30] deals with Protein Wnt-3a (Mus musculus, UniProt P27467). Description: SAR analysis of small molecule antagonists of Gli-SUFU in a Wnt3a luminescent reporter assay. Type of assay: functional.
Chain of Protein Wnt-3a (P27467 whole entry): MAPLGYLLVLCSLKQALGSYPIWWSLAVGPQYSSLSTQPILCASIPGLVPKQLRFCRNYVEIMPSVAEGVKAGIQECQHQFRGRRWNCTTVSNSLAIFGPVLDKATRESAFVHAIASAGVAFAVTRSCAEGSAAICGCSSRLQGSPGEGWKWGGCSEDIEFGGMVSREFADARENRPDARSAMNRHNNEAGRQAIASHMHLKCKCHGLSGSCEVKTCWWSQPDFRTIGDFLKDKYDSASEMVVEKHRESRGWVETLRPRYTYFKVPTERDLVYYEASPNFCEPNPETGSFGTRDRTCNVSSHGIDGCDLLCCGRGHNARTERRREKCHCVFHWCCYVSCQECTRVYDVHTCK
A short description of assay [31]: A549 cell cytotoxicity, dose response, cytotoxicity control, plate reader, cherry-pick, antagonist series (AID 743412). The format is functional, cell-based.
The nature of assay [32]: LGR2 antagonists, dose response, cell-based, HEK293, CRE-luciferase reporter, cherry pick (AID 743342). The format is functional.
Assay [33] in a line: ADAM10 inhibitors, peptide cleavage, dose response, biochemical, QFRET (AID 743254).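 Note: ADAM10 enzyme with the DM2 quenched FRET peptide as substrate; EDANS fluorescence gain as the protease cuts the substrate; inhibitor potency against ADAM10 proteolytic activity.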
Assay [34] deals with Disintegrin and metalloproteinase domain-containing protein 17 (Homo sapiens, UniProt P78536). The experiment in a line: ADAM17 protease inhibitors, dose response, counter-screen for ADAM10 exosite inhibitor project, biochemical, quenched FRET substrate (AID 743253).
Chain of Disintegrin and metalloproteinase domain-containing protein 17 (P78536 whole entry, the tested form may be a part): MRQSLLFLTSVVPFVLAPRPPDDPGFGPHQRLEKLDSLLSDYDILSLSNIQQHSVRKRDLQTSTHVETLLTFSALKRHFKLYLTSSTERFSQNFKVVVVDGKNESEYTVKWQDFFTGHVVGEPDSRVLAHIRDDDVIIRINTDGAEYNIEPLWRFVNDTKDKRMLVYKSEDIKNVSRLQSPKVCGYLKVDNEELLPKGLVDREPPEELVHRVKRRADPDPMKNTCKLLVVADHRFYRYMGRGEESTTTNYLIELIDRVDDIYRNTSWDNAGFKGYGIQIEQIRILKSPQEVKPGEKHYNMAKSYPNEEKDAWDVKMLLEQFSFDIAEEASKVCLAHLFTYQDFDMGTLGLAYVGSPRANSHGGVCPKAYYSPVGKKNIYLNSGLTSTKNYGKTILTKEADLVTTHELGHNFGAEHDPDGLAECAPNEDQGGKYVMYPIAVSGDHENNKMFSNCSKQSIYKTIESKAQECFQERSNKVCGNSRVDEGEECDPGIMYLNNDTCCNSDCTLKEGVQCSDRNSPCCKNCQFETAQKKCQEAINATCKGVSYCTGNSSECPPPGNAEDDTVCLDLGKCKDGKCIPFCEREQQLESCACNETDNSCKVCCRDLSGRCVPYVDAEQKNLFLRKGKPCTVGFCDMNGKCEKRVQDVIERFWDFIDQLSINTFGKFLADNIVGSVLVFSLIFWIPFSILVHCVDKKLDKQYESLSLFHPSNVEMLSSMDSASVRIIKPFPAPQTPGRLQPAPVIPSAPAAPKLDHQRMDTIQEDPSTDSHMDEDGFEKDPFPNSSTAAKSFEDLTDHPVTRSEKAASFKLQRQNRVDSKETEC
Assay [35] addresses T3, Low molecular weight phosphotyrosine protein phosphatase (Homo sapiens, UniProt P24666).
T3 sequence (P24666 whole entry): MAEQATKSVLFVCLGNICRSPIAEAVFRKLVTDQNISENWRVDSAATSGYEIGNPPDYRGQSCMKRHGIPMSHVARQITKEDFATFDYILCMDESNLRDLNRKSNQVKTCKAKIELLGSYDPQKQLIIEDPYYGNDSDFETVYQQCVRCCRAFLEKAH
Type of assay: functional. Conditions: read-out: IC50_Mean.

The target in assay [36] is T4, Carboxy-terminal domain RNA polymerase II polypeptide A small phosphatase 1 (Homo sapiens, UniProt Q9GZU7).
T4 sequence (Q9GZU7 whole entry): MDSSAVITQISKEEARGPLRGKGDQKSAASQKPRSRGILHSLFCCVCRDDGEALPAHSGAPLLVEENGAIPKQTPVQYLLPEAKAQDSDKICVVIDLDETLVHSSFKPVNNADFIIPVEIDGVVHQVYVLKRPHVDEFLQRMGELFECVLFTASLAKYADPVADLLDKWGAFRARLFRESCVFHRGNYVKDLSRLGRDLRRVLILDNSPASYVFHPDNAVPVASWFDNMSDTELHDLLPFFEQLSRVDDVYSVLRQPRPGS
Description: inhibitors of CTDSP1, concentration-response testing, biochemical assay, absorbance-based, actives from ultra-high-throughput screening (AID 540297). The format is functional.

For assay [37], the target named is T3, Low molecular weight phosphotyrosine protein phosphatase. Type of assay: functional. Conditions: read-out: IC50_Mean. The source holds these as a separate data set.
The target of assay [38] is T5, Tyrosine-protein phosphatase non-receptor type 22 (Homo sapiens, UniProt Q9Y2R2).
T5 sequence (Q9Y2R2 whole entry): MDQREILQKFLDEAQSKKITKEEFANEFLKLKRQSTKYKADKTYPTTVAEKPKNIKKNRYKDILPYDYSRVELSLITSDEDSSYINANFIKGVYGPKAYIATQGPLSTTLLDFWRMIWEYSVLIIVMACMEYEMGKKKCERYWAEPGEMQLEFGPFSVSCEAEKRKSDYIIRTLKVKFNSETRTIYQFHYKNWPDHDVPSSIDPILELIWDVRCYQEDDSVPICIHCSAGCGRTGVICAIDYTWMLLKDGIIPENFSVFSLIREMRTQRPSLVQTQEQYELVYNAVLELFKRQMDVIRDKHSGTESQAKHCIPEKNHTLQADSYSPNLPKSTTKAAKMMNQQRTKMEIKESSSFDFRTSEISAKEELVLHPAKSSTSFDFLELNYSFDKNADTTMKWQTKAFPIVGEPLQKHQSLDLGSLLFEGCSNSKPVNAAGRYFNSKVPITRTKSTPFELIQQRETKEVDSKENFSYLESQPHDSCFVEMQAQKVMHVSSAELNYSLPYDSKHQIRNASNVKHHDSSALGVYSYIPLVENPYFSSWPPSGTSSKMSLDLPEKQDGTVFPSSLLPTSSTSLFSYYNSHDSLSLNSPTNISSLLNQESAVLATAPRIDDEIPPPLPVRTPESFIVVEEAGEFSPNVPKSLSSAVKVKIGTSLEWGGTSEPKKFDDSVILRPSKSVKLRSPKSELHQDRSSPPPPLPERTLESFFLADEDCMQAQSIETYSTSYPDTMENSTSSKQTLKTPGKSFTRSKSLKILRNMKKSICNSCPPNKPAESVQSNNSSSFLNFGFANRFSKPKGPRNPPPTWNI
The experiment in a line: LYP phosphatase inhibition for selectivity, dose response, selectivity assay for LMPTP inhibitor project, biochemical, fluorescence, LYP catalytic domain (AID 652006). Type of assay: functional. Conditions: read-out: IC50_Mean.

Chain of Photoreceptor-specific nuclear receptor (Q9Y5X4 whole entry, the tested form may be a part): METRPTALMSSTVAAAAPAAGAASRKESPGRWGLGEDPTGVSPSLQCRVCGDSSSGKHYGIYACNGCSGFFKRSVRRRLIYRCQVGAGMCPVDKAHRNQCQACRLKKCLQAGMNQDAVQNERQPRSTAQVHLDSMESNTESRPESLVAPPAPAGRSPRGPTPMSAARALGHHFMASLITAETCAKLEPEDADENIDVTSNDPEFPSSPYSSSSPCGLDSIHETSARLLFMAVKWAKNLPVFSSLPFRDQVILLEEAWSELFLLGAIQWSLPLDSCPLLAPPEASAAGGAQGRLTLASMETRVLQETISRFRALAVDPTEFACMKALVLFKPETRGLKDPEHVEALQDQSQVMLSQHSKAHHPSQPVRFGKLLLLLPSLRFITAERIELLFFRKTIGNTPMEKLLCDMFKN

For the molecule `Cc1cc(C(=O)NN=C(S)Nc2cccc(C(F)(F)F)c2)nn1C`, the IC50 in assay [1] is > 122 µM (inactive).
As to `Cc1ccc2nc3c(O)n(CC(=O)N4CC(C)CC(C)C4)ncc-3c2c1` (stereo not drawn), the IC50 in assay [2] is 133 µM (inactive).
For the molecule `CN(c1cccc(NC(=O)c2ccc(C(C)(C)C)cc2)c1)S(C)(=O)=O`, the half-maximal activity concentration (AC50) is 22.6 µM (active) in assay [3] and 23.1 µM (active) in assay [4].
Consider `O=C1/C(=C/c2ccco2)Cc2ccccc21`, for which the EC50 in [5] and in assay [6] was > 91.1 µM (inactive) each time.
On to `O=C(CSc1n[nH]c(-c2ccccc2)n1)Nc1ccc(F)cc1F`, for which the IC50 in assay [7] was 3.68 µM (active); in [8] it was 3.99 µM (active); in [9], 35.9 µM (inactive).
For the molecule `Cc1cccc(NS(=O)(=O)c2ccc(-c3cnc(C4CC4)o3)cc2)c1C`, the figures for the IC50 in assay [10] and in assay [11] were 6.35 µM (active) and 67.5 µM (inactive), respectively. The EC50 was < 0.104 µM (active) in assay [12]; 2.67 µM (active) in assay [13]; 2.51 µM (active) in [14]; 2.88 µM (inconclusive) in assay [15]; 2.74 µM (inconclusive) in assay [16].
As to `Cc1c(C(=O)OCC(=O)NCC2CCCO2)oc2ccccc12` (stereo not drawn), the values for the IC50 in [17] and in assay [18] were > 80 µM (inactive) and 11.9 µM (active), respectively.
In the case of `O=C(c1ccco1)N1CCN(c2cc(Cc3ccccc3)nc3cc(-c4cccc(Cl)c4)nn23)CC1`, the EC50 in [19] is 4.21 µM (active); in assay [20], 0.8 µM (active).
Regarding `C[C@@H]1CN([C@H](C)CO)C(=O)c2cc(-c3cccc(C#N)c3)cnc2O[C@H]1CN(C)C(=O)C1CCC1`, the concentration at half-maximal activity (AC50) in assay [21] is 53.7 µM (active).
Turning to `CC(CNC(=O)[C@@H](Cc1ccccc1)NC(=O)[C@H]1O[C@@H](n2cnc3c(=O)[nH]c(N)nc32)[C@H](O)[C@@H]1O)c1ccccc1` (stereo partly drawn), the IC50 in [22] was > 29.9 µM (inactive). The EC50 in assay [23] was > 29.9 µM (inactive).
On to `C[C@@H]1CN([C@H](C)CO)C(=O)c2cc(NS(=O)(=O)c3ccc(Cl)cc3)ccc2O[C@@H](C)CCCCO[C@H]1CN(C)S(=O)(=O)c1ccc(Cl)cc1`, for which the concentration at half-maximal activity (AC50) in assay [24] was 54.6 µM (active); in assay [25], 15.9 µM (active); in assay [26], 32.9 µM (active); in assay [27], 4.76 µM (active); in assay [28] it was 25.1 µM (active).
Molecule `C[C@@H]1CN([C@@H](C)CO)C(=O)c2c(c3ccccc3n2C)-c2ccccc2CO[C@@H]1CN(C)C(=O)Nc1ccc(F)cc1` came in with an AbsAC35 in assay [29] of 304.17 µM.
For the molecule `O=C(Nc1cc(NCC2CCCO2)ncn1)c1ccccc1` (stereo not drawn), the IC50 in [30] was > 21.8 µM (inactive).
With `COc1ccc(NC(=O)N(C)C[C@@H]2OCCCC[C@H](C)Oc3ccc(NC(=O)C4CCCCC4)cc3C(=O)N([C@H](C)CO)C[C@@H]2C)cc1`, the results for the AC50 in assay [31] and in [32] were 27.8 µM (active) and 2.67 µM (active), respectively.
Consider `CNC(=S)N/N=C/c1cn(CCOc2ccc(OC)cc2)c2ccccc12`, for which the IC50 in [33] and in [34] was > 69.5 µM (inactive) throughout.
Consider `O=C(N/N=C/c1cccc(Br)c1)c1ccc(Br)cc1`, for which the IC50 is 39.7 µM (inactive) in [35], 4.51 µM (active) in [36], 12.2 µM (active) in assay [37] and 41.4 µM (inactive) in assay [38].
